Measured values: US10106515B2, “1-(cyclopent-2-en-1-yl)-3-(2-hydroxy-3-(arylsulfonyl)phenyl)urea derivatives as CXCR2 inhibitors” (GLAXOSMITHKLINE INTELLECTUAL PROPERTY DEVELOPMENT LIMITED, priority 2014, dated 2018)

Molecular target: T1, recombinant human CXCR2 (Homo sapiens, UniProt P25025)
T1 construct: TEV protease site; Gal4-VP16 transcription factor
T1 sequence (P25025 1-360): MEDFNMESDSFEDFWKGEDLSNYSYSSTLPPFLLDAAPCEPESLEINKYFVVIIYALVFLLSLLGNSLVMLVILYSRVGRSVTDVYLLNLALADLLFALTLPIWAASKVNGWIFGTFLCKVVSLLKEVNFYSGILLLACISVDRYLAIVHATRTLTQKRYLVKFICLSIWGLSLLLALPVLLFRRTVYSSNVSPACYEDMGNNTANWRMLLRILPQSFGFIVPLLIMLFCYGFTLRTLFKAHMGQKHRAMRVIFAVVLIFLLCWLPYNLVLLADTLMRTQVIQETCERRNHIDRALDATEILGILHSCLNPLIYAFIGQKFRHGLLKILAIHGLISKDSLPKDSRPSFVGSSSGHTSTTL
Experiment: CXCR2 Tango assay
Assay type: cell-based
Details: mean pIC50 of multiple test results; stimulated with 80 nM hCXCL1; reporter gene blue/green emission ratio; read-out: pIC50 (CXCR2 Tango assay) (converted)
How it was run: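 Mean pIC50 comes from sigmoidal fits of the blue/green (460/530 nm) CCF4-AM ratio, normalized between hCXCL1-stimulated and DMSO controls. Compounds in 10-point dose response were incubated overnight at 37 °C with recombinant human CXCR2 Tango cells (~10,000/well) and 80 nM hCXCL1, with reporter read-out via arrestin-TEV release of Gal4-VP16.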

- IC50: ≤ 10 nM
Structure (SMILES): CC1=CCC[C@H]1NC(=O)Nc1ccc(Cl)c(S(=O)(=O)[C@@]2(C)CCOC2)c1O [Compound 195, 1-(4-chloro-2-hydroxy-3-(((S)-3-methyltetrahydrofuran-3-yl)sulfonyl)phenyl)-3-((R)-2-methylcyclopent-2-en-1-yl)urea]
